Results from patent publication US20250313535A1, “ALPHA 4 BETA 7 INTEGRIN MODULATORS AND USES THEREOF” (DICE MOLECULES SV, INC., priority 2022, published 2025).
Like-named read-outs stand apart in the source and are kept apart here.

Key:
α4β7 integrin = α4β7 integrin (Homo sapiens (Human), UniProt P13612+P26010); experiment: Integrin Adhesion Assay: Protocol 4 (MAdCAM-coated plate, RPMI-8866 cells with stable LOF mutation of the ITGB1 gene); format: cell-based
Outline: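 RPMI-8866 cells with CRISPR/Cas9 knockout of ITGB1 (2×10^6/mL) were added to MAdCAM-coated wells with compound (1% DMSO) in HEPES/NaCl buffer with 1 mM MnCl2, 0.1 mM CaCl2 and 1% BSA, then incubated 1 h at 37 °C. After four washes, adherent cells were quantified by CellTiter-Glo luminescence. Percent inhibition versus DMSO and control compound was fitted to 4-parameter curves.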

α4β1 integrin = α4β1 integrin (Homo sapiens (Human), UniProt P05556+P13612); experiment: Integrin Adhesion Assay: Protocol 5 (VCAM-coated plate, RPMI-8866 cells with stable LOF mutation of the ITGB7 gene); format: cell-based
Chain of α4β1 integrin (P13612 34-1032): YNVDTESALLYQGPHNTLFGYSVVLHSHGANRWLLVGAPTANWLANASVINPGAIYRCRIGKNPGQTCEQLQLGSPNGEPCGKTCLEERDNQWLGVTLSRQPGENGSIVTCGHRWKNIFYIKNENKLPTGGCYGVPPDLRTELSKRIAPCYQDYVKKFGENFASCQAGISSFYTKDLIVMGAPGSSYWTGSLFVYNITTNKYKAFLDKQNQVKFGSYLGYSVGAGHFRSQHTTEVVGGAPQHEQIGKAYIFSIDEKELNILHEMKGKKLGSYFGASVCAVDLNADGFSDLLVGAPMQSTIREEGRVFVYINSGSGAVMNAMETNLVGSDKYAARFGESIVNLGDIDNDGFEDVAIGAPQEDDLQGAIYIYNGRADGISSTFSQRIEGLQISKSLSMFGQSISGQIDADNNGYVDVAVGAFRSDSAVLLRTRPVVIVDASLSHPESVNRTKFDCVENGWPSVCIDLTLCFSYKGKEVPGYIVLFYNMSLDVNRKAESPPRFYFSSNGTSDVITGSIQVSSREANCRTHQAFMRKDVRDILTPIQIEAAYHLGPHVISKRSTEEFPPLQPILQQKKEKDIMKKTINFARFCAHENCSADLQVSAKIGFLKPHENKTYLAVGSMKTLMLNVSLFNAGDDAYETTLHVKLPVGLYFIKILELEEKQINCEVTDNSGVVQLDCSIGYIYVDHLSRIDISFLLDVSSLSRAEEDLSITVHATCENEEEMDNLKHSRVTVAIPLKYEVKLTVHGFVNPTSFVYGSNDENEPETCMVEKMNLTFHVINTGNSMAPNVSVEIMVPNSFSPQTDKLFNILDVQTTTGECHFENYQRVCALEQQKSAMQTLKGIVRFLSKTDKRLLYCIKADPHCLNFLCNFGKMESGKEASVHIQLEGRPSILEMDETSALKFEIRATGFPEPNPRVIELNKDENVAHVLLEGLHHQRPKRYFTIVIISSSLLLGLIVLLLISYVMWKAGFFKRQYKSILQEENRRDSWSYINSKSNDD
Chain of α4β1 integrin (P05556 21-798): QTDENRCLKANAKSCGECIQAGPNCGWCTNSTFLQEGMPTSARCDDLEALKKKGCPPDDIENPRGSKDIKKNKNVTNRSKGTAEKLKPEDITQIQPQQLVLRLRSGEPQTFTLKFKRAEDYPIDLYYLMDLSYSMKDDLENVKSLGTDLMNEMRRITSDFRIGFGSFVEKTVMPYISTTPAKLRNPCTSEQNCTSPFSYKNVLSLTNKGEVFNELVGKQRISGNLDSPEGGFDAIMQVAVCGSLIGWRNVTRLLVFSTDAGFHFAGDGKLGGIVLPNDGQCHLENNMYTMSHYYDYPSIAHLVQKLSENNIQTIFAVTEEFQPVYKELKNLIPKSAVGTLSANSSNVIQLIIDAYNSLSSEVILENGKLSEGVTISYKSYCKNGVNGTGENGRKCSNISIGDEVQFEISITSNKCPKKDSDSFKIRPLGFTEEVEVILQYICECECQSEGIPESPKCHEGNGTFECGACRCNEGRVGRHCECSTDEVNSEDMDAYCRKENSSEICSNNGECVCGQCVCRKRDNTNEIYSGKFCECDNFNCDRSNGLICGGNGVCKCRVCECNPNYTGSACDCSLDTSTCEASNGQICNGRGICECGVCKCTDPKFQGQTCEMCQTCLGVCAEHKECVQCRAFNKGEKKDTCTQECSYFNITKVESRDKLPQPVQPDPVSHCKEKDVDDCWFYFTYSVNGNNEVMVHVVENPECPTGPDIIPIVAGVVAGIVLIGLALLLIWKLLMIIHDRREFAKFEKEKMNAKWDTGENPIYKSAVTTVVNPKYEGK
Outline: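 RPMI-8866 B cells with CRISPR/Cas9 ITGB7 knockout (clonal, verified by flow cytometry) adhered to VCAM-coated wells for 1 h at 37° C in HEPES/NaCl buffer with 1 mM MnCl2, 0.1 mM CaCl2, 1% BSA, 1% DMSO. Bound cells quantified by CellTiter-Glo luminescence after washing; % inhibition versus DMSO and control, 4-parameter fit.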

[1] = RPMI-8866 cells with stable LOF mutation of the ITGB1 gene, read-out: Mean IC50 α4β7 KO^a
[2] = RPMI-8866 cells with stable LOF mutation of the ITGB7 gene, read-out: Mean IC50 α4β1 KO^b
[3] = Protocol 4, RPMI-8866 cells with LOF mutation of ITGB1, MAdCAM, read-out: Mean IC50 α4β7 KO
[4] = Protocol 5, RPMI-8866 cells with LOF mutation of ITGB7, VCAM, read-out: Mean IC50 α4β1 KO

Chain of α4β7 integrin (P13612 34-1032): as the sequence (P13612 34-1032) above
Chain of α4β7 integrin (P26010 20-798): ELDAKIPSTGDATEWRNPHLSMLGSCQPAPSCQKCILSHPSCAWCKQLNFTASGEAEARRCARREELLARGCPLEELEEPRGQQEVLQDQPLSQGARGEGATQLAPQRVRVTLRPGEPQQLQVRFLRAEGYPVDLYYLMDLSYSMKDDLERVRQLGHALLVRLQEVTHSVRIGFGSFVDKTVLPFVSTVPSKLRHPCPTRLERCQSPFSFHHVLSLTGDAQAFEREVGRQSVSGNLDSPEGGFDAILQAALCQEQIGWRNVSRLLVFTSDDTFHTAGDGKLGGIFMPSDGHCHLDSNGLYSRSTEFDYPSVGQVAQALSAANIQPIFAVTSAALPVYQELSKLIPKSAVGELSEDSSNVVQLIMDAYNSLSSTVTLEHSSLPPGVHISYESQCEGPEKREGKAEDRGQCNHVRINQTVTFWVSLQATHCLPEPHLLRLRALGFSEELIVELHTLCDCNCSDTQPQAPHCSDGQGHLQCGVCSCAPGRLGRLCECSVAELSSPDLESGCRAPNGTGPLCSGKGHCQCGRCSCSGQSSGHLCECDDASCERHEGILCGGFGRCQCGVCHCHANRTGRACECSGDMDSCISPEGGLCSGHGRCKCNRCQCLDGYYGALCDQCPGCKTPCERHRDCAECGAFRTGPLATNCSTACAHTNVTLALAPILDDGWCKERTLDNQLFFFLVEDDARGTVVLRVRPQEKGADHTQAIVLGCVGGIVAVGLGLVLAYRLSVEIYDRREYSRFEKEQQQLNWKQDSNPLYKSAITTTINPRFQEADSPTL

| SMILES | IC50 (α4β7 integrin; [1]) | IC50 (α4β1 integrin; [2]) | IC50 (α4β7 integrin; [3]) | IC50 (α4β1 integrin; [4]) |
| --- | --- | --- | --- | --- |
| Cn1c(=O)c(-c2cccc3c(C[C@H](NC(=O)C4(C(F)(F)F)CCN(CCF)CC4)C(=O)O)cccc23)c(C(F)(F)F)c2ccccc21 [Compound 530] | < 10 nM | 100 to 1000 nM | – | – |
| COc1ccc(CN2CCC(CF)CC2)c(OC)c1-c1cccc2c(C[C@H](NC(=O)c3c(C)cccc3F)C(=O)O)cccc12 [Compound 652] | < 10 nM | 100 to 1000 nM | – | – |
| O=C(O)[C@H](Cc1cccc2c(-c3ncc(CN4CC5CC(C5)C4)c4ccccc34)cccc12)NC(=O)C1(C(F)(F)F)CCN(CC(F)F)CC1 [Compound 907] | – | – | < 10 nM | > 1000 nM |
| CC1(C(=O)N[C@@H](Cc2cccc3c(-c4ncc(CN5CCCCC5)c5ccccc45)cccc23)C(=O)O)CCN(CC(F)F)CC1 [Compound 687] | – | – | < 10 nM | > 1000 nM |
| CN(C)Cc1ccc2c(c1)c(C(F)(F)F)c(-c1cccc3c(C[C@H](NC(=O)C4(C(F)(F)F)CCN(CC(F)(F)F)CC4)C(=O)O)cccc13)c(=O)n2C [Compound 696] | – | – | < 10 nM | 10 to 100 nM |
| COc1cc(CCN(C)C)cc(OC)c1-c1cccc2c(C[C@H](NC(=O)C3(C(F)(F)F)CCN(CC(F)(F)F)CC3)C(=O)O)cccc12 [Compound 531] | < 10 nM | 100 to 1000 nM | – | – |
| Cn1c(=O)c(-c2cccc3c(C[C@H](NC(=O)C4(C(F)(F)F)CCN(C5COCC5C(F)(F)F)CC4)C(=O)O)cccc23)c(C(F)(F)F)c2ccccc21 (stereo partly drawn) [Compound 513] | 10 to 100 nM | > 1000 nM | – | – |
| O=C(O)[C@H](Cc1cccc2c(-c3ccc(CN4CCCCC4)c4ccncc34)cccc12)NC(=O)C1(C(F)(F)F)CCN(CC(F)(F)F)CC1 [Compound 555] | < 10 nM | > 1000 nM | – | – |
| COc1ccc(CN2CC3CCC(C2)O3)c(OC)c1-c1cccc2c(C[C@H](NC(=O)C3(C(F)(F)F)CCN(CC(F)(F)F)CC3)C(=O)O)cccc12 [Compound 845] | – | – | 10 to 100 nM | > 1000 nM |
| CC1(C(=O)N[C@@H](Cc2cccc3c(-c4nccc5ccc(CCCN6CCCCC6)cc45)cccc23)C(=O)O)CC2CCC(C1)N2CC(F)(F)F (stereo partly drawn) [Compound 548] | < 10 nM | > 1000 nM | – | – |
| COc1cccc(CN2CCCCC2)c1-c1cccc2c(C[C@H](NC(=O)c3c(C)cccc3F)C(=O)O)cccc12 [Compound 1014] | – | – | < 10 nM | 100 to 1000 nM |
| COC(=O)[C@H](Cc1cccc2c(-c3nccc4cc(CCN(C)C)ccc34)cccc12)NC(=O)OC(C)(C)C [Compound 471] | < 10 nM | 100 to 1000 nM | – | – |
| CN1CCCC1c1cc(-c2cccc3c(C[C@H](NC(=O)C4(C(F)(F)F)CCN(CC(F)(F)F)CC4)C(=O)O)cccc23)c2cnccc2c1 (stereo partly drawn) [Compound 532] | 10 to 100 nM | > 1000 nM | – | – |
| CCc1c(CN(C)C)ccc(OC)c1-c1cccc2c(C[C@H](NC(=O)c3c(C)cccc3F)C(=O)O)cccc12 [Compound 1044] | – | – | < 10 nM | 100 to 1000 nM |
| COc1cccc(CCN2CCC(F)(F)CC2)c1-c1cccc2c(C[C@H](NC(=O)C3(C(F)(F)F)CCN(CC(F)F)CC3)C(=O)O)cccc12 [Compound 976] | – | – | < 10 nM | 100 to 1000 nM |
| COc1ccc(CN2CCCC3(CCN(Cc4ccccc4)CC3)C2)c(OC)c1-c1cccc2c(C[C@H](NC(=O)C3(C(F)(F)F)CCN(CC(F)(F)F)CC3)C(=O)O)cccc12 [Compound 809] | – | – | < 10 nM | 100 to 1000 nM |
| COc1ccc(CN(C)C)c(OC)c1-c1cccc2c(C[C@H](NC(=O)c3c(C)cccc3CN3CCC(F)(F)CC3)C(=O)O)cccc12 [Compound 588] | 100 to 1000 nM | > 1000 nM | – | – |
| O=C(O)[C@H](Cc1cccc2c(-c3ncc(C(=O)N4CCN(C5CC5)CC4)c4ccccc34)cccc12)NC(=O)C1(C(F)(F)F)CCN(CC(F)F)CC1 [Compound 763] | – | – | 10 to 100 nM | > 1000 nM |
| Cc1cc(CN2CCCCC2)cnc1-c1cccc2c(C[C@H](NC(=O)C3(C(F)(F)F)CCN(CC(F)(F)F)CC3)C(=O)O)cccc12 [Compound 880] | – | – | < 10 nM | > 1000 nM |
| CC(N1CCC(C(=O)N[C@@H](Cc2cccc3c(-c4c(C(F)(F)F)c5ccccc5n(C)c4=O)cccc23)C(=O)O)(C(F)(F)F)CC1)C(F)(F)F (stereo partly drawn) [Compound 515] | 100 to 1000 nM | > 1000 nM | – | – |

| SMILES | IC50 (α4β7 integrin; [1]) | IC50 (α4β1 integrin; [2]) | IC50 (α4β7 integrin; [3]) | IC50 (α4β1 integrin; [4]) |
| --- | --- | --- | --- | --- |
| COc1cc(CN(C)C)cc(OC)c1-c1cccc2c(C[C@H](NC(=O)C3(C(F)(F)F)CCN(CC(F)(F)F)CC3)C(=O)O)cccc12 [Compound 478] | < 10 nM | > 1000 nM | – | – |
| Cn1c(=O)c(-c2cccc3c(C[C@H](NC(=O)C4(C)CN(C5CCOC(C(F)(F)F)C5)C4)C(=O)O)cccc23)c(C(F)(F)F)c2ccccc21 (stereo partly drawn) [Compound 506] | 100 to 1000 nM | > 1000 nM | – | – |
| COc1ccc(CN2CCC(C(C)(C)C)CC2)c(OC)c1-c1cccc2c(C[C@H](NC(=O)c3c(C)cccc3F)C(=O)O)cccc12 [Compound 579] | < 10 nM | 100 to 1000 nM | – | – |
| COc1ccc(CN2CCCC2)c(OC)c1-c1cccc2c(C[C@H](NC(=O)c3c(C)cccc3F)C(=O)O)cccc12 [Compound 596] | < 10 nM | 100 to 1000 nM | – | – |
| O=C(O)[C@H](Cc1cccc2c(-c3ncc(CN4CCC(F)(F)CC4)c4ccccc34)cccc12)NC(=O)C1(C(F)(F)F)CCN(CC(F)(F)F)CC1 [Compound 853] | – | – | 10 to 100 nM | > 1000 nM |
| O=C(O)[C@H](Cc1cccc2c(-c3ncc(CN4CCCCC4)c4ccccc34)cccc12)NC(=O)C1(C(F)(F)F)CCN(C2CC(F)(F)C2)CC1 [Compound 681] | < 10 nM | 100 to 1000 nM | – | – |
| Cn1c(=O)c(-c2cccc3c(C[C@H](NC(=O)C4(C(F)(F)F)CCN(CC(F)F)CC4)C(=O)O)cccc23)c(C(F)(F)F)c2cc(CN3CCC(F)(F)CC3)ccc21 [Compound 836] | – | – | 10 to 100 nM | 10 to 100 nM |
| COc1ccc(CN2CC3CCCCC3C2)c(OC)c1-c1cccc2c(C[C@H](NC(=O)C3(C(F)(F)F)CCN(CC(F)(F)F)CC3)C(=O)O)cccc12 (stereo partly drawn) [Compound 811] | – | – | < 10 nM | > 1000 nM |
| COc1cc(CN2CCCCC2)cc(OC)c1-c1cccc2c(C[C@H](NC(=O)C3(C(F)(F)F)CCN(CC(F)(F)F)CC3)C(=O)O)cccc12 [Compound 794] | – | – | < 10 nM | 100 to 1000 nM |
| COc1ccc(CN2CCCC(C)(C)C2)c(OC)c1-c1cccc2c(C[C@H](NC(=O)c3c(C)cccc3F)C(=O)O)cccc12 [Compound 565] | < 10 nM | 100 to 1000 nM | – | – |
| Cn1c(=O)c(-c2cccc3c(C[C@H](NC(=O)C4(C(F)(F)F)CCN([C@H]5CCOC5)CC4)C(=O)O)cccc23)c(C(F)(F)F)c2ccccc21 [Compound 457] | < 10 nM | 100 to 1000 nM | – | – |
| COc1cccc(OCCN2CCCCC2)c1-c1cccc2c(C[C@H](NC(=O)c3c(C)cccc3F)C(=O)O)cccc12 [Compound 999] | – | – | < 10 nM | 100 to 1000 nM |
| CC[C@@H]1CCCCN1Cc1cnc(-c2cccc3c(C[C@H](NC(=O)C4(C(F)(F)F)CCN(CC(F)(F)F)CC4)C(=O)O)cccc23)c2ccccc12 [Compound 931] | – | – | < 10 nM | 100 to 1000 nM |
| COc1cccc(CCN2CCC(c3ccccc3)CC2)c1-c1cccc2c(C[C@H](NC(=O)C3(C(F)(F)F)CCN(CC(F)F)CC3)C(=O)O)cccc12 [Compound 975] | – | – | < 10 nM | 100 to 1000 nM |
| COc1ccc(CN2CCCC(F)C2)c(C(F)(F)F)c1-c1cccc2c(C[C@H](NC(=O)c3c(C)cccc3F)C(=O)O)cccc12 (stereo partly drawn) [Compound 572] | 10 to 100 nM | > 1000 nM | – | – |
| O=C(O)[C@H](Cc1cccc2c(-c3ncc(CN4CCCC(F)(F)CC4)c4ccccc34)cccc12)NC(=O)C1(C(F)(F)F)CCN(CC(F)(F)F)CC1 [Compound 869] | – | – | 10 to 100 nM | > 1000 nM |
| COc1ccc(CN2CCC[C@H](F)C2)c(OC)c1-c1cccc2c(C[C@H](NC(=O)c3c(C)cccc3F)C(=O)O)cccc12 [Compound 671] | < 10 nM | 100 to 1000 nM | – | – |
| COc1cccc(CCN2CCC(F)(F)CC2)c1-c1cccc2c(C[C@H](NC(=O)C3(C(F)(F)F)CCN(CC(F)(F)F)CC3)C(=O)O)cccc12 [Compound 974] | – | – | 10 to 100 nM | > 1000 nM |
| COc1ccc2ccccc2c1-c1cccc2c(C[C@H](NC(=O)C3(C(F)(F)F)CCN(CC(F)(F)F)CC3)C(=O)O)cccc12 [Compound 765] | – | – | 10 to 100 nM | > 1000 nM |
